Consider 100 compounds from ChEMBL document CHEMBL3507680, “University of Dundee, Gates Library screen for HepG2 cell viability”.

SMILES strings stand for the structures.

The series can be described thus: Human HepG2 cell viability assay in 384 well format. The series is classed as toxicity, cell-based. The note with it: HepG2 cells, read-out: Inhibition. Set-up: dose 125 nL, time 70.5 hour; concentration not given beside the values.
Take `Cc1occc1C(=O)N1CCC(C(O)c2ccc(F)cc2)CC1` (stereo not given): the cytotoxicity at 70.5 h is -4.29%.

Turning to `Cc1[nH]ccc1C(=O)N1CCCN1C(=O)OC(C)(C)C`, the cytotoxicity at 70.5 h was 0.542%.

In the case of `O=C(CN1CCCC1c1cccs1)N1CCc2sccc2C1` (stereo not given), the cytotoxicity at 70.5 h is -0.311%.

Regarding `CC(O)C1CCN(C(=O)CCOc2ccccc2F)CC1` (stereo not given), the cytotoxicity at 70.5 h is -14.1%.

With `COc1cccc(S(=O)(=O)NC(=O)CC2CCCC2)c1`, the cytotoxicity at 70.5 h was -3.66%.

With `N#Cc1ccc(Cl)cc1N1CCC(OC2CCOCC2)CC1`, the cytotoxicity at 70.5 h was -3.88%.

With `O=C(CCCn1cncn1)NC1(c2cccc(Br)c2)CC1`, the cytotoxicity at 70.5 h was determined as 4.56%.

As for `CCCN(Cc1ccc(OC)nc1)Cc1ccccc1OC`, the cytotoxicity at 70.5 h amounted to 12.5%.

As for `CN(C)C(C(=O)NCCS(=O)(=O)N(C)C)c1cccc(F)c1` (stereo not given), the cytotoxicity at 70.5 h worked out at 8.21%.

As for `COc1cccc(-c2noc(C3CCN(CC4CCCCC4)C3)n2)c1` (stereo not given), the cytotoxicity at 70.5 h worked out at 18.2%.

As for `CN1CCN(CC2CC2)C(=O)C12CCN(C(=O)CC(F)(F)F)CC2`, the cytotoxicity at 70.5 h is -4.4%.

In the case of `CC(CS(C)(=O)=O)N(C(=O)Nc1ccc(F)cc1F)C1CC1` (stereo not given), the cytotoxicity at 70.5 h was -1.48%.

Consider `Fc1cccnc1Oc1cc(F)c(CN2CCCC2)c(Cl)c1`, for which the cytotoxicity at 70.5 h was found to be 22.4%.

`N#Cc1cccc(CN2CCCC2Cn2cccn2)c1` (stereo not given): the cytotoxicity at 70.5 h is -1.88%.

Consider `Cc1nc(-c2nnc[nH]2)sc1C(=O)N(Cc1cccnc1)C1CC1`, for which the cytotoxicity at 70.5 h was found to be 9.64%.

As to `CC(=O)N1CC2(CCCN2Cc2ccc(Cl)cc2)Cc2ccccc21` (stereo not given), the cytotoxicity at 70.5 h was 31.4%.

For the compound `CS(=O)(=O)N1CCOCC2(CCN(C(=O)c3cnccn3)CC2)C1`, the cytotoxicity at 70.5 h came out at 17.6%.

Take `CN(C)CCCNC(=O)c1ccnc(OCc2ccccc2)c1`: the cytotoxicity at 70.5 h is -1.38%.

Consider `CNc1nccnc1C1CN(Cc2ccc3[nH]ccc3c2)CCO1` (stereo not given), for which the cytotoxicity at 70.5 h is -2.11%.

Turning to `CC(C(=O)Nc1cccc(Cl)c1)N1CCN(Cc2ncc[nH]2)CC1` (stereo not given), the cytotoxicity at 70.5 h is -10.6%.

As to `COc1ccc(Oc2ccc(C(F)(F)F)cn2)cc1CN1CCCC1`, the cytotoxicity at 70.5 h was -11.6%.

`Cc1nn(-c2ccccn2)c(C)c1[C@@H]1C=C[C@@H](NC(=O)CCC(=O)O)C1`: the cytotoxicity at 70.5 h is -6.4%.

For the compound `Cc1nc(CN2CCN(C(=O)COCc3ccccc3)CC2)no1`, the cytotoxicity at 70.5 h is -9.26%.

Take `N#CC1COCCN1C(=O)c1ccc2cc[nH]c2c1` (stereo not given): the cytotoxicity at 70.5 h is -9.25%.

`Cn1cc(N2CCCC(Nc3ccc4c(c3)NC(=O)CC4)C2=O)cn1` (stereo not given): the cytotoxicity at 70.5 h is -1.14%.

`COCCn1ccc2c(C(=O)NC3CN4CCC3CC4)cccc21` (stereo not given): the cytotoxicity at 70.5 h was -20.8%.

Consider `COC(=O)NCC(=O)NCC1(c2c(F)cccc2F)CCCC1`, for which the cytotoxicity at 70.5 h came out at 1.47%.

In the case of `COc1ccc2c(c1)CCCC2CC(=O)O` (stereo not given), the cytotoxicity at 70.5 h is -19.3%.

For `Cc1cc(N2CCCC2)nc(N(C)CCO)c1C#N`, the cytotoxicity at 70.5 h is -9.55%.

Take `COc1ccc(CN2CCO[C@H]3CN(C(=O)C4CC4)CC[C@H]3C2=O)cc1`: the cytotoxicity at 70.5 h was -12%.

Regarding `Cc1noc(-c2ccnc(Oc3ccccc3CN3CCCCC3)c2)n1`, the cytotoxicity at 70.5 h was -1.96%.

Take `CC(C)C(=O)Nc1cccc(CNC(=O)CSCc2ccccn2)c1`: the cytotoxicity at 70.5 h is -11.7%.

For `O=C1CCSCC(C(=O)N2CCCC2)N1` (stereo not given), the cytotoxicity at 70.5 h was -2.31%.

Turning to `Cn1cnnc1S(=O)(=O)C1CCN(C(=O)c2ccsc2)CC1`, the cytotoxicity at 70.5 h was -9.56%.

With `CCSCc1ccnc(NC(=O)C2CCCO2)c1` (stereo not given), the cytotoxicity at 70.5 h was -2.71%.

For `c1cnn(CC2CN(Cc3nc(-c4ccoc4)no3)CCO2)c1` (stereo not given), the cytotoxicity at 70.5 h came to 24.3%.

With `COc1ccc(C(=O)C2CCCN(c3nccc(N)n3)C2)c(C)c1` (stereo not given), the cytotoxicity at 70.5 h was -4.73%.

As to `CN1CCC2(CC1)Cc1ccccc1CN(C(=O)CN)C2`, the cytotoxicity at 70.5 h stood at 24.5%.

As to `Cc1cncc(C2CCCN(C(=O)c3scnc3C)C2)n1` (stereo not given), the cytotoxicity at 70.5 h was -3.5%.

In the case of `CC(CNC(=O)NCCCc1cc(N)n(-c2ccccc2)n1)N(C)C` (stereo not given), the cytotoxicity at 70.5 h was -8.44%.

Regarding `N#CCCN(CCN1CCOCC1)Cc1ccc(F)c(Br)c1`, the cytotoxicity at 70.5 h is -3.12%.

As to `O=C(NCC(O)c1ccc(F)c(F)c1)c1cccnc1O` (stereo not given), the cytotoxicity at 70.5 h is -3.92%.

In the case of `O=C(Nc1ccccc1)C1CN(Cc2nccs2)CC12CCOCC2` (stereo not given), the cytotoxicity at 70.5 h is 10%.

Turning to `CCCNC(=O)c1cc2c(s1)CCN2C(=O)c1ccccc1`, the cytotoxicity at 70.5 h turned out to be 14.2%.

`COCCCN1C(=O)c2ccc(C(=O)NCCc3c[nH]cn3)cc2C1=O`: the cytotoxicity at 70.5 h stood at 1.41%.

For `Cc1ccc(C(C)NC(=O)Cc2c(C)nc3c(c2C)c(=O)[nH]n3C)o1` (stereo not given), the cytotoxicity at 70.5 h was -4.59%.

Regarding `c1coc(CN2CCC3(CC2)COCCN(CCN2CCCC2)C3)c1`, the cytotoxicity at 70.5 h was -0.522%.

On to `Cc1ccc(C(=O)N2CCC(n3cc(CN)nn3)CC2)cc1F`, for which the cytotoxicity at 70.5 h is -5.32%.

Turning to `c1ccc(Cn2cc(CNc3ncnc4c3CCNCC4)cn2)cc1`, the cytotoxicity at 70.5 h is -15%.

With `Cn1cccc1C(=O)NCc1cn2c(n1)CN(c1ncccn1)CC2`, the cytotoxicity at 70.5 h was -12.8%.

Consider `COC[C@]12COC[C@H]1CN(Cc1cccnc1OC)C2`, for which the cytotoxicity at 70.5 h was -19%.

Turning to `O=C(NCCc1nnc2n1CCC2)NCC1(c2cccc(F)c2)CC1`, the cytotoxicity at 70.5 h is -29.8%.

Regarding `CC(=O)N1C[C@H]2CCCN(c3ncc(C)cn3)[C@H]2C1`, the cytotoxicity at 70.5 h is -11.8%.

For `COc1ccc(C(=O)NS(=O)(=O)c2cccc(C#N)c2)cc1`, the cytotoxicity at 70.5 h came out at 13.5%.

In the case of `COCC1CN(C(=O)Cc2ccccn2)Cc2ncn(C)c21` (stereo not given), the cytotoxicity at 70.5 h is -2.47%.

On to `COc1cc(C)nc(N2CCN(C(=O)CSC)CC2)n1`, for which the cytotoxicity at 70.5 h was -11.8%.

Turning to `Cn1cccc1C(=O)N1CCCCC1c1[nH]ncc1S(C)(=O)=O` (stereo not given), the cytotoxicity at 70.5 h is -5.18%.

`CCS(=O)(=O)N1CCC(c2nnc(Cn3cccn3)n2C2CC2)CC1`: the cytotoxicity at 70.5 h is -0.619%.

In the case of `c1ccc(-c2cnc(CN3CCn4c(nnc4C4CC4)C3)o2)cc1`, the cytotoxicity at 70.5 h is -9.82%.

Consider `Cc1nnc(NCc2cccnc2OCC(F)(F)F)c(C#N)c1C`, for which the cytotoxicity at 70.5 h is -0.691%.

Turning to `COc1cccc(Nc2nc(C3CCCNC3)c3sc(C)c(C)n23)c1` (stereo not given), the cytotoxicity at 70.5 h is -12%.

Take `NCC1Cc2cccc(-c3nccc(N4CCC(O)CC4)n3)c2O1` (stereo not given): the cytotoxicity at 70.5 h amounted to 7.11%.

For `Cc1ccc(N2CCN(C(=O)CCc3n[nH]c(C)c3C)CC2=O)cc1`, the cytotoxicity at 70.5 h is -0.118%.

Consider `Cc1cc(C)c2c(N3CCN(C(=O)N(C)C)CC3)ncnc2n1`, for which the cytotoxicity at 70.5 h was -3.44%.

As for `COc1ccc(-c2noc(C(CC(C)C)N3CCCCC3=O)n2)cn1` (stereo not given), the cytotoxicity at 70.5 h was -0.898%.

Regarding `CC(C)CC(=O)NCCCc1cc(N)n(-c2ccccc2)n1`, the cytotoxicity at 70.5 h worked out at 4.65%.

For the compound `CC(=O)Nc1ccc(/C=C/c2ncc(C(=O)O)s2)cc1`, the cytotoxicity at 70.5 h is -1.46%.

Consider `COCCNC(=O)CCNc1cc(C)nc(-c2ccncc2)n1`, for which the cytotoxicity at 70.5 h was -15.7%.

`O=S(=O)(Nc1ncccc1F)c1cc(Cl)cc2c1OCC2`: the cytotoxicity at 70.5 h was found to be 6.97%.

Turning to `O=C1COC2(COCCN(Cc3cccnc3)C2)CN1c1ccoc1` (stereo not given), the cytotoxicity at 70.5 h was -9.07%.

Turning to `CCCc1nnc2sc(C3CCN(C4CCN(C)CC4)CC3)nn12`, the cytotoxicity at 70.5 h was -12.7%.

Regarding `CCS(=O)(=O)N1CCC2(CC1)CC(Oc1ccccn1)CO2` (stereo not given), the cytotoxicity at 70.5 h is -18.2%.

Consider `Cn1cc([C@@H]2CN(S(=O)(=O)c3cccnc3)C[C@H]2N)c2ccncc21`, for which the cytotoxicity at 70.5 h stood at 24%.

`c1cncc(O[C@H]2COCCN(CC3CC3)C2)c1`: the cytotoxicity at 70.5 h was determined as 0.0943%.

Take `CCN(CC)C(=O)CSc1nnc(CCNC(=O)OC(C)(C)C)o1`: the cytotoxicity at 70.5 h was -11.3%.

As for `CN1CCCC2(CC1)CCN(C(=O)CCc1ccccc1O)CC2`, the cytotoxicity at 70.5 h amounted to 6.16%.

As for `O=C(CNc1cc(Br)ccc1Br)NC1CCS(=O)(=O)C1` (stereo not given), the cytotoxicity at 70.5 h is -14.1%.

As to `CCOc1c(F)cccc1C(=O)N(CC)C(C)c1ccncc1` (stereo not given), the cytotoxicity at 70.5 h was -4.06%.

With `COCCN1CC[C@@H]2CN(Cc3cccnc3OC)C[C@@H]2C1`, the cytotoxicity at 70.5 h is 13.9%.

Regarding `CN1CCN(S(=O)(=O)c2cccc(F)c2)Cc2cccnc21`, the cytotoxicity at 70.5 h is -2.06%.

On to `Cc1cc(C(=O)N2CCCC(c3nccn3Cc3ccncc3)C2)no1` (stereo not given), for which the cytotoxicity at 70.5 h was -12.9%.

`CCN(C)C[C@@H]1CN(C(=O)c2cc(-c3ccc(F)cc3)n[nH]2)C[C@@H]1CO`: the cytotoxicity at 70.5 h was -4.68%.

For `COc1ncccc1NC(=O)N(Cc1ccccn1)C1CC1`, the cytotoxicity at 70.5 h is -17.7%.

Take `Cc1ccc(CN2CCC3(CC(C(=O)NC4CCC4)=NO3)C2)o1` (stereo not given): the cytotoxicity at 70.5 h was -14.5%.

Regarding `COc1ncc(CN2CCC3(CCCN(CC4CCC4)C3)C2)cn1` (stereo not given), the cytotoxicity at 70.5 h was -1.38%.

In the case of `c1cnc(NCc2cncc3c2CCN(Cc2cccs2)C3)nc1`, the cytotoxicity at 70.5 h is -10.8%.

Take `COCC(C)NC(=O)N(C)Cc1cc(C)on1` (stereo not given): the cytotoxicity at 70.5 h was -5.5%.

For the compound `Cc1ccc2c(c1)CN(C(=O)c1ccncc1)C(CN(C)C)CO2` (stereo not given), the cytotoxicity at 70.5 h was -0.528%.

For `Cc1cc(CNC2(c3ccccc3)CCCCC2)on1`, the cytotoxicity at 70.5 h was -0.993%.

For `CN(C(=O)COCc1ccccc1)C1CCN(CC2CCOC2)CC1` (stereo not given), the cytotoxicity at 70.5 h is -7.68%.

Consider `CCn1cc(NC(=O)c2c(C)nn(C)c2C)c(C(N)=O)n1`, for which the cytotoxicity at 70.5 h was 19%.

Regarding `CCc1nc2c(c(NC3CC3)n1)CCN(C(=O)N1CCN(C)CC1)CC2`, the cytotoxicity at 70.5 h was -19.1%.

For the compound `Cc1ccc(Cl)c(C(C(=O)O)N(C)Cc2cnn(C)c2)c1` (stereo not given), the cytotoxicity at 70.5 h is 5.66%.

As for `CC(C(=O)NN1CCOCC1)n1nc(C(F)(F)F)c(Cl)c1C1CC1` (stereo not given), the cytotoxicity at 70.5 h was 6.2%.

Consider `CCOCCC(=O)Nc1cccc(Cl)c1C(N)=O`, for which the cytotoxicity at 70.5 h is -0.685%.

Regarding `COCCN1CCC2(CC1)C(=O)Nc1ccc(C(=O)NC(C)C)cc12`, the cytotoxicity at 70.5 h is 1.35%.

Consider `Cc1c(CN2CCCC(n3c(=O)oc4ccccc43)C2)cnn1C` (stereo not given), for which the cytotoxicity at 70.5 h was 17.2%.

Take `Cc1cccc(CNCc2ccc(NC(=O)NC(C)C)cc2)c1`: the cytotoxicity at 70.5 h was determined as 2.57%.

For the compound `CCN(C(=O)CN1CCC(c2ccccc2)C1)C1CC1` (stereo not given), the cytotoxicity at 70.5 h was determined as 0.241%.

With `CC(c1cccc(O)c1)N(C)S(=O)(=O)c1cccnc1` (stereo not given), the cytotoxicity at 70.5 h amounted to 4.03%.
